Laboratory results from patent US20100144543A1, “Epigenetic silencing of tumor suppressor genes” (The Salk Institute for Biological Studies, priority 2008, published 2010).
Numbered stars: 1 amine (or outer) side, 2 acyl side, 3 side chain; on linkers, the order of the positions; unused ones are H or OH. Bridge positions count the residues as written; N and C are the ends. Square brackets hold non-standard residues; d marks the D form. Peptide text beside a SMILES is read from it. I, II: the chains in the order shown. Actinocin(9to1) = Cc1c2oc3c(C)ccc(C(=O)[*:1])c3nc-2c(C(=O)[*:2])c(N)c1=O; NMeV = CN[C@H](C(=O)O)C(C)C; Sar = CNCC(=O)O

Key:
Format in all cases: cell-based, human
p16 [1] = experiment: Inhibition of transcription, RT-PCR of p16; settings: MDA-MB-435 cells, 24 hours, 2.5 μg/ml Actinomycin D or 1 μM Flavopiridol
Text: (§1) CTCF is a ubiquitous, multifunctional protein that has a critical role in organizing distinct chromosomal domains through boundary/insulator formation (Filippova et al. (2005) “Boundaries between chromosomal domains of X inactivation and escape bind CTCF and lack CpG methylation during early development.” Dev Cell 8: 31-42; Ishihara et al. (2006) “CTCF-dependent chromatin insulator is linked to epigenetic remodeling.” Mol Cell 23: 733-742; Splinter et al. (2006) “CTCF mediates long-range chromatin looping and local histone modification in the beta-globin locus.” Genes Dev 20: 2349-2354) and in repressing or activating transcription. Because we saw a pronounced change in chromatin structure upstream of the p16 gene when active or silenced (FIG. 1), we explored the possibility that CTCF can associate within this region. […] Yet, we detected CTCF binding at a well-characterized target gene, c-Myc, in both p16-expressing and non-expressing cell types. […] CTCF was immunoprecipitated and analyzed for association with the p16^INK4a and RASSF1A gene. […]
(§2) MDA-MB-435 cells were treated with Flavopiridol (Sigma) or Actinomycin D (Sigma) at 1 μM and 2.5 μg/ml, respectively, for 24 hours. At this time cells were harvested and analyzed for gene expression and CTCF binding.

RASSF1A [2] = experiment: Inhibition of transcription, RT-PCR of RASSF1A; settings: MDA-MB-435 cells, 24 hours, 2.5 μg/ml Actinomycin D or 1 μM Flavopiridol
Text: as §1, §2

p16 gene = experiment: p16 mRNA induction after AZA treatment (RT-PCR, qPCR); settings: T47D cells treated with both AZA and Trichostatin A
Text: The p16 tumor suppressor gene is commonly silenced in numerous types of human cancers and remains a relevant therapeutic target of wide interest. One method that is extensively employed to restore p16 expression, both clinically and in vitro, is treatment of cancer cells with hypomethylating-nucleoside analogues such as 5′AZA-2′-deoxycytidine (AZA) (Otterson et al. (1995) “CDKN2 gene silencing in lung cancer by DNA hypermethylation and kinetics of p16INK4 protein induction by 5-aza 2′ deoxycytidine.” Oncogene 11: 1211-1216; Schrump et al. (2006) “Phase I study of decitabine-mediated gene expression in patients with cancers involving the lungs, esophagus, or pleura.” Clin Cancer Res 12: 5777-5785), which reverses DNA methylation. We reasoned that treatment of cells with AZA might also restore CTCF binding at the p16 upstream promoter through one of two mechanisms. First, CTCF is known to bind DNA in a methylation-sensitive fashion (Hark et al. (2000) “CTCF mediates methylation-sensitive enhancer-blocking activity at the H19/Igf2 locus.” Nature 405: 486-489); thus, demethylation of the p16 locus might allow CTCF to reassociate. […]

CTCF = experiment: PARlation status of CTCF, IP with anti-PAR antibody; settings: MDA-MB-435 cells, treated with 3-ABA for 24 hours
Procedure: As described above, CTCF may be important for maintaining an active p16 gene. To further investigate possible CTCF defects that may impact its function in p16-silenced T47D breast cancer cells, we examined its post-translational modifications and association with several known protein interaction partners. […] In addition, western blots were performed to determine the protein levels of CTCF and putative interacting partners in MDA-MB-435 and T47D cells (FIG. 4B). […] Moreover, PARP-1 and Nucleolin appear to associate with CTCF in a mutually exclusive manner, with Nucleolin being present in CTCF complexes only in p16 expressing cells. To explore this further, we examined the PARlation status of CTCF in each cell type using an antibody that recognizes ADP-ribose polymers (PAR). Unexpectedly, we found PARlation associated with both CTCF and Nucleolin in p16-expressing MDA-MB-435 cells but not in p16-silenced TD47 cells (FIG. 4D, upper panels). […] Inputs are equal to 2.5% starting material.
2 mg of whole cell lysates were diluted in IP buffer with 0.5% Triton X-100. Protein mixes were pre-cleared for 1-2 hours with protein G Sepharose, after which the beads were removed and CTCF (Upstate) or anto-phosphotyrosine (Upstate) antibody added overnight at 4° C. to capture complexes. Complexes were recovered with protein G Sepharose, washed 4 times in IP buffer and subsequently analyzed by SDS-PAGE.

RASSF1A [3] = experiment: qPCR expression analysis of CTCF target gene RASSF1A upon inhibition of PARP activity; settings: MDA-MB-435 cells, 24 hours, 5 mM 3-ABA, normalized to c-Myc
Procedure: (§3) Next, we examined whether PARlation of target proteins impacts the expression of CTCF-regulated tumor suppressor genes. To achieve this, we perturbed cellular PARlation activity in p16-expressing cells by two approaches: first, incubation with the broad-spectrum PARP inhibitor 3-ABA; and second, shRNA-mediated ablation of PARP-1. […] Results are normalized to c-Myc levels. Error bars represent ±standard deviation.
(§4) PARP-1 knockdown was achieved using the MISSION™ Lentiviral shRNA system from Sigma. Lentiviral particles were packaged in HEK293T cells, with virus collected 24 hours post-transfection. Cells infected with shRNA-containing virus and polybrene were selected using puromycin at 72 hours post infection.

p16 [4] = experiment: qPCR expression analysis of CTCF target gene p16 upon inhibition of PARP activity; settings: MDA-MB-435 cells, 24 hours, 5 mM 3-ABA, normalized to c-Myc
Procedure: as §3, §4

**Q.** Which results are given for `CN1CC[C@H](c2c(O)cc(O)c3c(=O)cc(-c4ccccc4Cl)oc23)[C@H](O)C1` [Flavopiridol]?
**A.** p16 transcription (p16 [1]): inhibition; RASSF1A transcription (RASSF1A [2]): inhibition

**Q.** Which results are given for `Cc1c2oc3c(C)ccc(C(=O)N[C@@H]4C(=O)N[C@H](C(C)C)C(=O)N5CCC[C@H]5C(=O)N(C)CC(=O)N(C)[C@@H](C(C)C)C(=O)O[C@@H]4C)c3nc-2c(C(=O)N[C@@H]2C(=O)N[C@H](C(C)C)C(=O)N3CCC[C@H]3C(=O)N(C)CC(=O)N(C)[C@@H](C(C)C)C(=O)O[C@@H]2C)c(N)c1=O` [Actinomycin D] (I: T[dV]P[Sar][NMeV] / II: T[dV]P[Sar][NMeV]; ester I:1-I:C, II:1-II:C; linker I:N-II:N via Actinocin(9to1))?
**A.** p16 transcription (p16 [1]): inhibition; RASSF1A transcription (RASSF1A [2]): inhibition

**Q.** For `CC(/C=C/C(=O)NO)=C\[C@@H](C)C(=O)c1ccc(N(C)C)cc1` [Trichostatin A], which “synergistic p16 gene reactivation” value (p16 gene) is on record?
**A.** No synergistic p16 gene reactivation

**Q.** What does the source list for `NC(=O)c1cccc(N)c1` [3-ABA, 3-Aminobenzamide]?
**A.** PARlation associated with CTCF and Nucleolin (CTCF): inhibited; RASSF1A mRNA levels (RASSF1A [3]): dramatic decrease; p16 mRNA levels (p16 [4]): significant reduction
